Among the data in ChEMBL document CHEMBL1201862, “PubChem BioAssay data set” (2004) are IC50, EC50 and AC50 values, retold here.

The source made the active and inactive calls.

Data set [1] addresses T1, Rac GTPase-activating protein 1 (Homo sapiens, UniProt Q9H0H5).
T1 sequence (Q9H0H5 whole entry): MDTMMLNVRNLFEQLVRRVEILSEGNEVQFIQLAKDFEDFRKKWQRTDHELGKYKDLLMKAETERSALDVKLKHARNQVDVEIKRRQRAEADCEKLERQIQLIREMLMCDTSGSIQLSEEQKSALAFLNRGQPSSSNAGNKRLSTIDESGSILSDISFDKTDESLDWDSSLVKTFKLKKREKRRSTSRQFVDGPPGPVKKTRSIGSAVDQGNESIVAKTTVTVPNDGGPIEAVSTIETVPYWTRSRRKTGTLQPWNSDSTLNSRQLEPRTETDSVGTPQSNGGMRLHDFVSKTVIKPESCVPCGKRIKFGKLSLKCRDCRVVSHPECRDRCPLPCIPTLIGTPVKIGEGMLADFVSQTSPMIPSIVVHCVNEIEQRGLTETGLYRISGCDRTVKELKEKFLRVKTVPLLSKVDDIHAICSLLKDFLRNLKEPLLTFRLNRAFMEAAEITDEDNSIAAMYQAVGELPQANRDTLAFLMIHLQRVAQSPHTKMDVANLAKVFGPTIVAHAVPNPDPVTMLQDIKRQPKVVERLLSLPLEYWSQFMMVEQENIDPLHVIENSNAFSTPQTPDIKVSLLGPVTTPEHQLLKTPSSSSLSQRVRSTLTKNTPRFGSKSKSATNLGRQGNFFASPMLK
Nature of the data set: MgcRacGAP GTPase-activating activity inhibitors, confirmation, biochemical, ADP Hunter fluorescence, primary and confirmatory (AID 624330). It is filed as functional.

A short description of data set [2]: Luminescence Cell-Based Dose Response HTS to Identify Inhibitors of 5'UTR Stem-Loop Driven Prion Protein mRNA Translation in H4 Neuroglioblastoma Cells. [Related pubchem assays: 1827 (Project Summary), 1813 (Primary HTS)]. The data set is classed as functional.
The nature of data set [3]: inhibitors of firefly luciferase expression or activity, dose response, H4 neuroglioma cells, luminescence (AID 1990). It is filed as functional, cell-based.
Data set [4] is described as follows: inhibitors of SNCA 5'UTR-driven reporter translation, confirmation, H4 neuroglioma cells, luminescence (AID 1988). The data set is classed as functional, cell-based.
For data set [5], the target named is Cytochrome P450 2C19 (Homo sapiens, UniProt P33261). Nature of the data set: Cytochrome panel assay with activity outcomes. Panel member name: p450-cyp2c19 Compounds with AC50 equal or less than 10 uM are considered active. It is filed as functional.
Data set [6] is described as follows: Luminescence Cell-Based Dose Retest to Confirm Inhibitors of Cancer Stem Cells. [Related pubchem assays (depositor defined):AID2717, AID2721]. It is filed as functional. The conditions noted are these: Homo sapiens.
Data set [7] has as its target T2, Streptokinase A (Streptococcus pyogenes serotype M1, UniProt P10520).
T2 sequence (P10520 whole entry): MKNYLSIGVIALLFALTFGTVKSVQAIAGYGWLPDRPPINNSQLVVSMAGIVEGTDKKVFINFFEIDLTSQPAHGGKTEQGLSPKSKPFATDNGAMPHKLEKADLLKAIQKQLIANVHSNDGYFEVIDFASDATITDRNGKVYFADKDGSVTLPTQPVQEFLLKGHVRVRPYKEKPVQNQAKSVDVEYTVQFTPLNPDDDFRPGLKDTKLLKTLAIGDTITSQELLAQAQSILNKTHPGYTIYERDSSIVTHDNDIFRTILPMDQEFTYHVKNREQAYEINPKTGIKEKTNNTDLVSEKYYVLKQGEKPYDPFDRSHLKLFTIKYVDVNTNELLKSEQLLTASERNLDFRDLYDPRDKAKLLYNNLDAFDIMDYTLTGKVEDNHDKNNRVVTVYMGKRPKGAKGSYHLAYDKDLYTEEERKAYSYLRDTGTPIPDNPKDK
Nature of the data set: S. pyogenes streptokinase expression inhibitors, potency, dose response, plasminogen activation absorbance, OD405 (AID 1914).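 Further: secreted streptokinase activity via plasminogen activation per viability signal from cell pellet.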 The data set is classed as functional, Streptococcus pyogenes M1 GAS.

The test system of data set [8] is Streptococcus. As to the kind of experiment: Group A Streptococcus viability loss, dose response, counter-screen for streptokinase expression inhibitor project, luminescence, BacTiterGlo (AID 1915).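 Further: potency for reduction of bacterial viability or growth.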 It is filed as functional, organism-based.
Data set [9] deals with Streptococcus sp. 'group A'. As to the kind of experiment: growth inhibition of control SK(-) GAS strain, dose response, counter-screen for streptokinase expression inhibitor project, luminescence, kanamycin, BacTiterGlo, confirmation (AID 1900). The data set is classed as functional, organism-based. Background: Counterscreens check selectivity or assay interference.
Data set [10] in a line: inhibitors of intracellular T. cruzi replication, confirmation, NIH3T3 host cells, beta-gal luminescence (AID 2044).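 Further: intracellular parasites grown in NIH/3T3 mouse fibroblasts as host cells; luminescent beta-galactosidase reporter signal from transgenic T. cruzi replicating inside host cells; inhibitors lower the luminescence signal.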 The data set is classed as functional, cell-based.
Data set [11] can be described thus: cytotoxicity toward NIH3T3 fibroblasts, dose response, counter-screen, cell-based, ATP luminescence, mouse fibroblasts (AID 2010).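 Further: cells exposed to compound for about 90 hours before reading.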 It is filed as functional.
A short description of data set [12]: growth suppression of PTEN-null colon cells, dose response, cell-based, HCT116 PTEN knockout (AID 1047).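 Further: HCT116 colon tumor cells with PTEN knocked out; cells exposed to compound for 60 hours before readout; potency for loss of cell viability measured by luminescence.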 It is filed as functional.
The nature of data set [13]: growth suppression of beta-catenin-knockout colon cells, dose response, cell-based, HCT116, human colon tumor (AID 1045).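 Further: HCT116 colon tumor cells with beta catenin knocked out; cells exposed to compound for 60 hours.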 It is filed as functional.

Sequence of Cytochrome P450 2C19 (P33261 whole entry): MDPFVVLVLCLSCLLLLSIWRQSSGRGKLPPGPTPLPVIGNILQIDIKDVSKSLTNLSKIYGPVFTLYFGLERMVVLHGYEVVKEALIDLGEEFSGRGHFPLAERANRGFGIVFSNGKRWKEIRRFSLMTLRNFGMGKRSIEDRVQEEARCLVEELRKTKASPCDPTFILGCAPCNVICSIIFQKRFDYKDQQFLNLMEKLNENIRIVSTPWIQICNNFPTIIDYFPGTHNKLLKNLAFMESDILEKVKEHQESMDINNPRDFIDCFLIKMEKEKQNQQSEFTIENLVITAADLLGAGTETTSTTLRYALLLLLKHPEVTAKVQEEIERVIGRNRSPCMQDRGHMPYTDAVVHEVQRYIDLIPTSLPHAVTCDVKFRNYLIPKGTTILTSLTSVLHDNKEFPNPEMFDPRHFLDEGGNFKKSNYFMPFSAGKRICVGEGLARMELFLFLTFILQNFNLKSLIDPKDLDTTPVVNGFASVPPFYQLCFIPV

On to `Cc1ccc(CN2CCN(Cc3ccccc3F)CC2)cc1`, for which the half-maximal inhibitory concentration (IC50) – broadly, the concentration that inhibits the measured activity by half – in data set [1] is 76.6 µM (active). Consider `COc1ccccc1NC(=O)CSc1nnc(COc2ccc(Cl)cc2)n1Cc1ccco1`, for which the EC50 (usually the midpoint of the concentration-response curve) is > 120 µM (not active) in data set [2], > 120 µM (not active) in data set [3] and 48 µM (active) in [4]. For the molecule `O=C(O)CC[C@@H](C(=O)O)N1C(=O)[C@@H]2[C@@H]3CC[C@H](C3)[C@@H]2C1=O`, the AC50 – broadly, the concentration giving half of the maximal activity seen – in [5] is recorded as “inconclusive”.

On to `OCCCCC#Cc1c(-c2ccsc2)sc2ccccc12`, for which, in data set [6], the AC50 is 3.15 µM (active). For the same molecule, the EC50 in [7] was > 150 µM (not active); in [8], 8.45 µM (active); in [9], 6.64 µM (active).

Consider `CCOC(=O)c1c(NC(=O)c2c(N)n(CCCOC)c3nc4ccccc4nc23)sc2c1CCCC2`, for which the EC50 is 2.74 µM (active) in data set [10]; > 150 µM (not active) in data set [7]; 25.1 µM (active) in data set [8]; 4.29 µM (active) in data set [9]; > 60 µM (not active) in data set [11]. `N#CC1=C(N)OC2=C(CCc3ccccc32)C1c1ccccc1Cl` (centres undefined): the EC50 in [7] was 11.9 µM (active); in data set [8], 18.9 µM (active); in [9] it was 4.61 µM (active). Turning to `COc1cccc(CN2CCC(C(=O)N3CCC(C)CC3)CC2)c1`, the 50% inhibitory concentration (IC50) in data set [1] was 162 µM (active). With `NCCS(=O)(=O)NC1CCCCC1`, the EC50 in [7], in data set [8] and in data set [9] was > 150 µM (not active) throughout. Turning to `CC(OC(=O)CC1CCCC1)C(=O)Nc1ccc(S(N)(=O)=O)cc1` (centres undefined), the EC50 in data set [7], in data set [8] and in [9] was > 150 µM (not active) in each case. Take `CC(C)CNCCc1ccccn1`: in data set [5], the AC50 entry was “inconclusive”. Turning to `CCC(C)c1ccccc1NS(=O)(=O)c1cnn(CC)c1` (centres undefined), the EC50 in data set [7], in data set [8] and in [9] was > 150 µM (not active) each time. Regarding `O=S(=O)(Nc1cc(O)nc(SCc2ccccc2Cl)n1)c1ccccc1`, the EC50 was > 120 µM (not active) in data set [2], > 120 µM (not active) in data set [3] and 12.8 µM (active) in data set [4]. Consider `CCCS(=O)(=O)N1CCN(CC2CC3C=CC2C3)CC1` (centres undefined), for which, in data set [1], the IC50 was 205 µM (active). Still for that read-out and setting: in the case of `Cc1ccc(NCCCCO)cc1C` it was 35.9 µM (active). Take `COc1cccc(-c2nc(NCCNC(C)=O)c3ccccc3n2)c1`: in data set [5] (read-out: AC50), the AC50 was 15.8 µM (inconclusive). Take `Cc1ccc(C(C(=O)NCc2ccco2)N(C(=O)CNC(=O)c2cccs2)c2c(C)cccc2C)cc1` (centres undefined): the EC50 in [12] is 6.55 µM (active); in data set [13], 8.32 µM (active). Take `O=C(Nc1ccc(Cl)c(Cl)c1)Nc1cc(S(=O)(=O)N2CCOCC2)ccc1N1CCCC1`: the values for the EC50 in data set [12] and in data set [13] were 22.5 µM (active) and 20.3 µM (active), respectively. As to `COc1ccc(O)c(C(=O)c2coc(=N)c(C(=O)Nc3ccc(SC(F)F)cc3)c2)c1`, the results for the half-maximal effective concentration (EC50) in data set [7], in data set [8] and in [9] were > 150 µM (not active), > 150 µM (not active) and 40.6 µM (active), respectively. `CCOC(=O)N1CCN(C(=O)c2ccc3c(c2)N(C)C(=O)/C(=C\c2ccc(OCC)c(OC)c2)S3)CC1`: the EC50 in data set [7] was > 150 µM (not active); in data set [8], 4.57 µM (active); in [9], 0.624 µM (active).

Turning to `CC(C)(C)c1cc(-c2ccco2)c(C#N)c(SCC#N)n1`, the EC50 in [2] is > 120 µM (not active); in data set [3] it was 16 µM (active); in [4] it was 15.2 µM (active). As to `CN(C)c1ccc(C2C=C(c3ccc(Cl)cc3OC(F)F)Nc3ncnn32)cc1` (centres undefined), the EC50 was > 150 µM (not active) in [7], 16.4 µM (active) in [8] and 9.65 µM (active) in data set [9]. As for `CCN1CCN(CC(=O)Nc2cc(C(F)(F)F)ccc2OCCOC)CC1`, in data set [1], the IC50 was 48.5 µM (active). Regarding `O=C(Cc1csc(Nc2[nH]c(=S)nc3ccccc23)n1)NCCCN1CCN(c2cccc(Cl)c2)CC1`, the EC50 in [7] is recorded as > 150 µM (not active). With `CN1CCC(=C2c3ccccc3CCc3sccc32)CC1`, the AC50 in data set [5] (read-out: AC50) was 3.98 µM (inconclusive). Still for that read-out and setting: then `Cc1ccc(Oc2cc(N3CCOCC3)nc(-c3ccccc3)n2)cc1`, with 2.24 µM (inconclusive). For `Cc1cccc(Oc2cc(NC(=O)Cn3cnc([N+](=O)[O-])n3)cc([N+](=O)[O-])c2)c1`, the concentration for a half-maximal effect (EC50) in [12] is 36.1 µM (active); in data set [13] it was 28.7 µM (active). As for `CC(C)(C)CC(C)(C)NCC(=O)Nc1c2c(nc3ccccc13)CCC2`, in [1], the IC50 was 88.7 µM (active).

Take `O=C(c1cccc([N+](=O)[O-])c1)N1CCN(c2cccc(Cl)c2)CC1`: the EC50 was 4.8 µM (active) in [12] and 5.22 µM (active) in data set [13].

As for `COc1ccc(-c2nc(/C=C3\C(C)=Nc4ccccc43)c(O)o2)cc1`, the EC50 in data set [7] is > 150 µM (not active); in data set [8], 12.1 µM (active); in data set [9], 3.54 µM (active). In the case of `O=C(c1ccc(F)cc1)N1CCN(C2CCCCC2)CC1`, the IC50 in data set [1] is 196 µM (active). As to `COc1ccc(C2=NN(CN3C(=O)C(=O)c4ccccc43)C(c3ccc(Br)cc3)C2)cc1` (centres undefined), the concentration giving a half-maximal response (EC50) in data set [12] was 27.3 µM (active); in [13], 26.2 µM (active). Turning to `COCCn1c(=O)c(CCc2ccccc2)nc2cnc(N3CCN(C)CC3)nc21`, the concentration at half-maximal activity (AC50) in data set [5] (read-out: AC50) is 10 µM (inconclusive).

For the molecule `COc1cccc(CNCc2ccccc2Br)c1OC`, the IC50 in data set [1] was 145 µM (active). For `CCOC(=O)c1[nH]c2ccccc2c1N=C(S)Nc1cc(C)ccc1C`, in [1], the 50% inhibitory concentration (IC50) was 77.5 µM (active). In the case of `O=C(NCCCN1CCCC1=O)c1ccc(CNS(=O)(=O)c2ccc(F)cc2)cc1`, the AC50 in [5] (read-out: AC50) is 39.8 µM (inconclusive). As for `C=CCn1c(SCC(=O)Nc2ccc(O)cc2)nc2sc(CC)cc2c1=O`, in [1], the IC50 is 54.5 µM (active). Still for that read-out and setting: then `Cc1cc(-c2nnc(S)n2/N=C/c2ccc(Br)s2)[nH]n1`, with 91.6 µM (active); and `COc1cc(/C=N/NC(=O)c2ccccc2NS(=O)(=O)c2cccs2)ccc1O`, with 74.5 µM (active). On to `Cc1cccc(C)c1OCc1nc2ccccc2c(=O)n1/N=C/c1c[nH]c2ccccc12`, for which the EC50 was 1.14 µM (active) in data set [10], 23.6 µM (active) in [12], > 30 µM (not active) in data set [11] and 24.7 µM (active) in data set [13].

With `CN(C)c1ccc(N/C=C/C(=O)C(C)(C)C)cc1`, in data set [1], the IC50 is 7.98 µM (active). For the molecule `O=C(O)Cc1sc(-c2ccc(Cl)cc2)nc1-c1ccccc1`, in [5] (read-out: AC50), the AC50 was 14.1 µM (inconclusive). For the molecule `CC(C)=CCc1c(-c2ccc(O)cc2O)oc2cc3c(c(O)c2c1=O)C=CC(C)(C)O3` [CUDRAFLAVONE B], the values for the EC50 in data set [7], in data set [8] and in [9] were > 150 µM (not active), 4.94 µM (active) and 3.36 µM (active), respectively. For `CC(=O)NC[C@H]1CN(c2ccc(N3CCOCC3)c(F)c2)C(=O)O1` [LINEZOLID], in that order: 6 µM (inconclusive), 0.645 µM (active) and 0.17 µM (active).
